This is an account of results in PubChem BioAssay AID248 (DTP/NCI, 2004).

Inconclusive results and toxic doses are left out. Peptide text beside a SMILES is read from it. * marks the point of attachment. Boc = CC(C)(C)OC(=O)*; OtBu = CC(C)(C)O*; NHNH2 = NN*

The test system of the assay is L1210 leukemia ip in BDF1 mice, survival T/C. The assay is described as follows: NCI In Vivo Anticancer Drug Screen. Data for tumor model L1210 Leukemia (intraperitoneal) in B6D2F1 (BDF1) mice. To be noted: endpoint: mean survival time, higher = longer survival. The essentials:
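Each compound was tested against a transplantable tumor grown in mice. The endpoint was survival, with treated animals benchmarked against vehicle controls as a simple ratio.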

Take `Oc1ccc(-c2nnc(-c3ccc(O)cc3)nn2)cc1`: the T/C (dose: 100.0 mg/kg/injection, schedule: Q04DX002 (ip), vehicle: Klucel (hydroxypropylcellulose) (HPC)) is 91 % of control; the T/C (dose: 200.0 mg/kg/injection, schedule: Q04DX002 (ip), vehicle: Klucel (hydroxypropylcellulose) (HPC)) is 94 % of control; the T/C (dose: 400.0 mg/kg/injection, schedule: Q04DX002 (ip), vehicle: Klucel (hydroxypropylcellulose) (HPC)) was 102 % of control.

Consider `CCC(C)C(NC(=O)CNC(=O)OC(C)(C)C)C(=O)NC(C(=O)NC(CCC(=O)OC(C)(C)C)C(=O)NN)C(C)C` (configuration not stated) (Boc-GIVE(OtBu)-NHNH2; configuration not given here), for which the T/C was 100 % of control (dose: 75.0 mg/kg/injection, schedule: Q01DX001 (ip), vehicle: saline sonified); 92 % of control (dose: 150.0 mg/kg/injection, schedule: Q01DX001 (ip), vehicle: saline sonified); 106 % of control (dose: 300.0 mg/kg/injection, schedule: Q01DX001 (ip), vehicle: saline sonified).

For the compound `CCCCCn1c(Cl)c(C(=O)O)c2ccccc21`, the T/C was 109 % of control (dose: 25.0 mg/kg/injection, schedule: Q04DX003 (ip), vehicle: Klucel (hydroxypropylcellulose) (HPC)); 97 % of control (dose: 50.0 mg/kg/injection, schedule: Q04DX003 (ip), vehicle: Klucel (hydroxypropylcellulose) (HPC)); 102 % of control (dose: 100.0 mg/kg/injection, schedule: Q04DX003 (ip), vehicle: Klucel (hydroxypropylcellulose) (HPC)).

As to `O=C(c1ccc([N+](=O)[O-])cc1)C1NC1c1ccccc1` (configuration not stated), the T/C is, setting by setting: (dose: 50.0 mg/kg/injection, schedule: Q01DX001 (ip), vehicle: carboxymethylcellulose (CMC)) 91 % of control; (dose: 100.0 mg/kg/injection, schedule: Q01DX001 (ip), vehicle: carboxymethylcellulose (CMC)) 97 % of control; (dose: 200.0 mg/kg/injection, schedule: Q01DX001 (ip), vehicle: carboxymethylcellulose (CMC)) 100 % of control; (dose: 400.0 mg/kg/injection, schedule: Q01DX001 (ip), vehicle: carboxymethylcellulose (CMC)) 91 % of control.

With `[N-]=[N+]=CC(=O)CCC(N)C(=O)O` (configuration not stated), the T/C reads like this: (dose: 0.01 mg/kg/injection, schedule: Q01DX015 (ip), vehicle: water) 101 % of control; (dose: 0.03 mg/kg/injection, schedule: Q01DX015 (ip), vehicle: water) 118 % of control; (dose: 0.05 mg/kg/injection, schedule: Q01DX009 (ip), vehicle: saline) 118 % of control; (dose: 0.06 mg/kg/injection, schedule: Q01DX009 (oral), vehicle: saline) 114 % of control; (dose: 0.1 mg/kg/injection, schedule: Q01DX015 (ip), vehicle: other) 168 % of control; (dose: 0.1 mg/kg/injection, schedule: Q01DX015 (ip), vehicle: water) 154 % of control. Also, the T/C (dose: 0.2 mg/kg/injection, schedule: Q01DX009 (ip), vehicle: saline) was 120 % of control; the T/C (dose: 0.2 mg/kg/injection, schedule: Q01DX009 (oral), vehicle: saline) was 150 % of control; the T/C (dose: 0.2 mg/kg/injection, schedule: Q01DX015 (ip), vehicle: other) is 210 % of control; the T/C (dose: 0.2 mg/kg/injection, schedule: Q01DX015 (ip), vehicle: water) is 156 % of control; the T/C (dose: 0.25 mg/kg/injection, schedule: Q01DX009 (oral), vehicle: saline) is 164 % of control; the T/C (dose: 0.39 mg/kg/injection, schedule: Q03HX016 (ip), vehicle: saline) is 150 % of control. In addition, the T/C runs as follows: (dose: 0.39 mg/kg/injection, schedule: Q03HX024 (ip), vehicle: saline) 184 % of control; (dose: 0.4 mg/kg/injection, schedule: Q01DX009 (ip), vehicle: saline) 104 % of control; (dose: 0.4 mg/kg/injection, schedule: Q01DX015 (ip), vehicle: water) 218 % of control; (dose: 0.4 mg/kg/injection, schedule: Q02DX005 (oral), vehicle: saline) 162 % of control; (dose: 0.6 mg/kg/injection, schedule: Q01DX015 (ip), vehicle: water) 168 % of control; (dose: 0.63 mg/kg/injection, schedule: Q02DX008 (ip), vehicle: water) 156 % of control. Also, the T/C is 165 % of control (dose: 0.78 mg/kg/injection, schedule: Q03HX016 (ip), vehicle: saline); 194 % of control (dose: 0.78 mg/kg/injection, schedule: Q03HX024 (ip), vehicle: saline); 150 % of control (dose: 0.8 mg/kg/injection, schedule: Q02DX005 (oral), vehicle: saline); 180 % of control (dose: 1.25 mg/kg/injection, schedule: Q02DX008 (ip), vehicle: water); 162 % of control (dose: 1.25 mg/kg/injection, schedule: Q02DX008 (oral), vehicle: water); 160 % of control (dose: 1.56 mg/kg/injection, schedule: Q03HX016 (ip), vehicle: saline). Further, the T/C was 174 % of control (dose: 1.56 mg/kg/injection, schedule: Q03HX024 (ip), vehicle: saline); 167 % of control (dose: 1.6 mg/kg/injection, schedule: Q02DX005 (oral), vehicle: saline); 187 % of control (dose: 2.5 mg/kg/injection, schedule: Q02DX008 (ip), vehicle: other); 156 % of control (dose: 2.5 mg/kg/injection, schedule: Q02DX008 (oral), vehicle: other); 205 % of control (dose: 2.5 mg/kg/injection, schedule: Q02DX008 (oral), vehicle: water); 90 % of control (dose: 3.12 mg/kg/injection, schedule: Q03HX024 (ip), vehicle: saline). The T/C is 150 % of control (dose: 3.12 mg/kg/injection, schedule: Q04DX003 (ip), vehicle: saline); 153 % of control (dose: 3.2 mg/kg/injection, schedule: Q02DX005 (oral), vehicle: saline); 216 % of control (dose: 5.0 mg/kg/injection, schedule: Q02DX008 (ip), vehicle: other); 169 % of control (dose: 5.0 mg/kg/injection, schedule: Q02DX008 (oral), vehicle: other); 170 % of control (dose: 6.25 mg/kg/injection, schedule: Q04DX003 (ip), vehicle: saline); 179 % of control (dose: 6.4 mg/kg/injection, schedule: Q02DX005 (oral), vehicle: saline). In addition, the T/C was 205 % of control (dose: 10.0 mg/kg/injection, schedule: Q02DX008 (oral), vehicle: other); 181 % of control (dose: 12.5 mg/kg/injection, schedule: Q04DX003 (ip), vehicle: saline); 150 % of control (dose: 12.5 mg/kg/injection, schedule: Q08DX002 (ip), vehicle: saline); 185 % of control (dose: 12.8 mg/kg/injection, schedule: Q02DX005 (oral), vehicle: saline); 104 % of control (dose: 15.0 mg/kg/injection, schedule: Q02DX008 (ip), vehicle: other); 184 % of control (dose: 15.0 mg/kg/injection, schedule: Q02DX008 (oral), vehicle: other). The T/C is, setting by setting: (dose: 20.0 mg/kg/injection, schedule: Q02DX008 (oral), vehicle: other) 197 % of control; (dose: 25.0 mg/kg/injection, schedule: Q01DX001 (ip), vehicle: water) 123 % of control; (dose: 25.0 mg/kg/injection, schedule: Q08DX002 (ip), vehicle: saline) 151 % of control; (dose: 25.0 mg/kg/injection, schedule: Q## X003 (ip), vehicle: saline) 167 % of control; (dose: 26.0 mg/kg/injection, schedule: Q02DX005 (oral), vehicle: saline) 187 % of control; (dose: 50.0 mg/kg/injection, schedule: Q## X002 (ip), vehicle: saline) 165 % of control. The T/C by setting is: (dose: 50.0 mg/kg/injection, schedule: Q## X016 (ip), vehicle: saline) 98 % of control; (dose: 100.0 mg/kg/injection, schedule: Q01DX001 (ip), vehicle: saline) 156 % of control; (dose: 100.0 mg/kg/injection, schedule: Q## X002 (ip), vehicle: saline) 168 % of control; (dose: 100.0 mg/kg/injection, schedule: Q## X003 (ip), vehicle: saline) 92 % of control; (dose: 150.0 mg/kg/injection, schedule: Q01DX001 (ip), vehicle: water) 159 % of control; (dose: 200.0 mg/kg/injection, schedule: Q01DX001 (ip), vehicle: saline) 110 % of control. In addition, the T/C is 151 % of control (dose: 200.0 mg/kg/injection, schedule: Q01DX001 (ip), vehicle: water); 97 % of control (dose: 200.0 mg/kg/injection, schedule: Q## X002 (ip), vehicle: saline); 89 % of control (dose: 400.0 mg/kg/injection, schedule: Q## X002 (ip), vehicle: saline); 98 % of control (dose: 25.0 micrograms/kg/injection, schedule: Q01DX010 (ip), vehicle: saline); 112 % of control (dose: 50.0 micrograms/kg/injection, schedule: Q01DX010 (ip), vehicle: saline).
